Reference: a melting point compilation (Tetko et al.; mined from patent text by program, amines drawn as free bases though some values may be those of a salt)

| melting point [°C] | Structure (SMILES) |
| --- | --- |
| 42 to 43 | Cc1cccc(C(=O)CC(=O)C2CCCCC2)c1O |
| 161 to 162 | COc1ccc(S(=O)(=O)Nc2ncnc(OCCO)c2Cc2ccccc2OC)cc1 |
| 111 to 113 | COC(=O)c1ccc(C(=O)c2ccccc2)[nH]1 |
| 229 to 230 | CCC(=O)Nc1cccc(-c2ccc(=O)[nH]n2)c1 |
| 239 to 242 | COc1cc2ncc(C(N)=O)c(Nc3cccc(Br)c3)c2cc1OC |
| 232 to 234 | Cc1c(Nc2ncccc2C(=O)O)cccc1C(F)F |
| > 260 | O=C1c2ccccc2C(=O)c2sc(-c3ccc(F)cc3F)nc21 |
| 118 to 123 | CCN(CC)CCOc1ccc(Nc2nc(N)c(C(=O)c3cccc(OC)c3)s2)cc1 |
| 220 | O=S(=O)(c1cccs1)c1ccc(O)c(Cl)c1Cl |
| 173 | COC(=O)c1cc(NC(=O)OC(C)(C)C)c([N+](=O)[O-])cc1C#Cc1ccccc1 |
| 120 to 122 | CN1CCN2C(=O)c3ccccc3C12c1ccccc1 (configuration not stated) |
| 103 to 104 | CC(=O)OCCCS(=O)(=O)c1ccc(S(N)(=O)=O)s1 |
| 225 to 245 | COc1c(CC(=O)O)c2c(c3c1OC(C)(C)C3)C(c1ccccc1)=NC(C)(C)C2 |
| 301 to 303 | CCOC(=O)Cc1c2c(nn1-c1ccccc1)c(=O)[nH]c1ccccc12 |
| > 300 | O=C(O)c1ccc2[nH]cc(-c3cc4cccnc4[nH]3)c2c1 |
| 158 to 159 | COc1cc(Nc2nccc(-c3ccc(NC(=O)OC(C)(C)C)cc3)n2)cc(OC)c1OC |
| 82 to 85 | O=C(O)Cc1ccccc1Oc1ccccc1 |
| 133 to 134 | Cc1cccc(-c2nc(-c3ccc(S(C)=O)cc3)sc2-c2cc(C)nc(C)c2)c1 (configuration not stated) |
| 117 to 118 | Cc1ccc(S(=O)(=O)OCC2COc3ccc([N+](=O)[O-])c(C=CC#N)c3O2)cc1 (configuration not stated) |
| 223 to 224 | CC(C(=O)N1c2ccccc2C(=O)Nc2cccnc21)N1CCN(C)CC1 (configuration not stated) |
| 65 to 66 | COC(=O)C(C)(O[Si](C)(C)C(C)(C)C)c1ccc([N+](=O)[O-])cc1 (configuration not stated) |
| 256 | CS(=O)(=O)c1cccc(NC(=O)c2cnn3c(C(F)(F)F)cc(-c4ccc(F)c(F)c4)nc23)c1 |
| 124 to 130 | CC(C)c1cc(C(C)C)c(S(=O)(=O)n2cc3c4c(cccc42)C(=O)CC3)c(C(C)C)c1 |
| 216 | COc1ccc(-c2cncc(OC3SCC(O)C(O)C3O)c2)cc1 (configuration not stated) |
| 198 | Fc1ccc(-c2csc(NN=Cc3cn(Cc4ccc(Cl)cc4Cl)c4ccccc34)n2)cc1 |

| melting point [°C] | Structure (SMILES) |
| --- | --- |
| > 300 | CCOC(=O)C(=O)Nc1cc(O)ccc1O |
| 175 to 176 | Cc1ncc([N+](=O)[O-])n1CCN1C(=O)c2cccc([N+](=O)[O-])c2C1=O |
| 59 to 65 | COC(=O)c1ccc2c(c1)CN(C(=O)OCc1ccccc1)C2 |
| 129 to 130 | CS(=O)(=O)c1ccc(-c2cnn(CC(F)(F)F)c(=O)c2OC2CCCCC2)cc1 |
| 89 to 90 | COc1ccc(-c2cnc(N)c(Sc3ccccc3)n2)cc1 |
| 140 to 142 | CN1C(=O)C(=O)c2cnccc21 |
| 192 | O=C(OCc1ccccc1)c1cc2cc([N+](=O)[O-])ccc2[nH]1 |
| 225 to 229 | C/C=C/c1ccc2nc(Cl)c(S(N)(=O)=O)n2n1 |
| 199 to 200 | O=C(O)C1Cc2c(c(Cl)cc3c(-c4ccccc4F)noc23)O1 (configuration not stated) |
| 240 to 241 | O=C(O)C1Cc2c(c(Cl)cc3c(-c4c(F)cccc4F)noc23)O1 (configuration not stated) |
| 104 to 106 | COC(=O)C(C#N)=Cc1cccs1 |
| 167 | O=P1(O)OCc2ccccc21 |
| 190 to 192 | COc1ccc(C2=N[C@H](c3ccccc3)CO2)cc1C#CCN(O)C(N)=O |
| 115 to 116 | CCN1CCc2ccc(C(=O)CCC(=O)N3CCC(c4ccc(Cl)cc4)CC3)cc2C1 |
| 139 to 141 | CCOC(=O)C(=O)Nc1c([N+](=O)[O-])sc2cc(Cl)ccc12 |
| 76 to 78 | CN1C(=O)CCc2cc(Cl)ccc21 |
| 121 to 124 | COc1ccc(C2=NN(Cc3ccncc3)C(=O)[C@H]3CC=CC[C@@H]23)cc1OC (relative stereo) |
| 211 | COc1ccc(Cl)c(Oc2cnc(-c3ncccn3)nc2C=O)c1 |
| 205 to 207 | CCCCOC(=Cn1ccnc1)c1ccc(Cl)cc1Cl |
| 86 to 88 | CC(=O)c1cc(Cl)sc1SCc1ccccc1 |
| 176 to 177 | COC(=O)c1ccc(I)cc1S(N)(=O)=O |
| > 260 | CS(=O)(=O)c1ccc(-c2cnn(CC(F)(F)F)c(=O)c2N)cc1 |
| 208 to 209 | CCOCc1nc2c(N)nc3cc(-c4cccc(NS(C)(=O)=O)c4)cnc3c2n1CC(C)(C)F |
| 114 to 118 | Cn1nc(C(=O)O)cc1OCCCN1CCN(c2cccc3sccc23)CC1 |
| 101 to 103 | COc1cccc2c1nc(-c1c(F)cccc1F)n2CC=C(C)C |

The remaining lines, values behind:

| Structure (SMILES) | melting point [°C] |
| --- | --- |
| O=C1CCC(N2Cc3c(OCc4ccc(CN5CCC(C(F)(F)F)CC5)cc4)cccc3C2=O)C(=O)N1 (configuration not stated) | 178 to 180 |
| CCOC(=O)c1cc2c(cc(C)n2OC)nc1C(=O)OCC | 94.5 to 96.5 |
| CC1COP(=O)(Cc2ccc(N)cc2)OC1 (configuration not stated) | 158 to 159 |
| COc1cc(CCNC(=O)N(C)O)cc(OC)c1 | 121 to 123 |
| O=C(O)COc1cccc(CCCOC(c2ccccc2)c2ccccc2)c1 | 110 to 112 |
| CCc1ncc2n1N=C(c1ccc([N+](=O)[O-])cc1)c1cc3c(cc1C2)OCO3 | 243 to 245 |
| Cc1c(C(F)(F)F)nc[nH]c1=O | 175 to 176 |
| CC(=O)Nc1cc2c(cc1[N+](=O)[O-])OC(C)(C)C1OC21 (configuration not stated) | 156 to 158 |
| CC(c1oc2ccccc2c(=O)c1-c1ccccc1)n1nc(-c2cccc(O)c2)c2c(N)ncnc21 (configuration not stated) | 212 to 216 |
| Cc1cc2ncnn2c(N2CCN(C)CC2)n1 | 95 to 98 |
| Cc1cc2c(cc1Br)C(=O)CC(C)(C)O2 | 95 to 96 |
| CN(C)CCOc1ccc2[nH]c(C(=O)N3CC(CCl)c4c3cc(OCc3ccccc3)c3ncccc43)cc2c1 (configuration not stated) | 176 to 179 |
| O=c1c(NCCCOc2cccc(CN3CCCCC3)c2)c(NCc2cccnc2)c1=O | 174 to 178 |
| CCOc1ccnc(F)c1N | 76 to 77 |
| CON1C=C2N=Nc3cc(C)cnc3N2C1 | 213 to 214 |
| COCN1C(C)=C(C(=O)O)[C@H](c2cccc([N+](=O)[O-])c2)C(C(=O)OCOC(=O)C(C)(C)C)=C1C | 84 to 85 |
| CCn1ncnc1COc1nn2c(-c3ccccc3F)nncc2c1C(C)(C)CC | 89 to 92 |
| COc1ccc2c(c1O)C13CCNC(C2)C1CC(C)C(=O)C3 (configuration not stated) | 163 to 165 |
| Cc1ccc(SN(CC(=O)OCc2ccccc2)CP(=O)(Oc2ccccc2)Oc2ccccc2)cc1 | 108 to 111 |
| CSc1c(O[C@H]2CC[C@@H](N3C(=O)c4ccccc4C3=O)CC2)ccc2[nH]ncc12 | 211 to 212 |
| CN(C)C1CCN(c2cc3ccccc3c(=O)[nH]2)C1 (configuration not stated) | 233 to 234 |
| COC(=O)COc1cc2c(c3c1c(C(=O)C(N)=O)c(C)n3Cc1ccc(F)cc1)CCC2 | 134 to 136 |
| COCCCNC(=O)C(C)(C(C)C)C(C)C | 10 |
| Cc1cnc2c(C#N)c(-c3ccc(S(=O)(=O)NC4(C(F)(F)F)CC4)cn3)n(C3CCCC3)c2c1 | 249 to 251 |
| c1ccc(-c2nc(COc3ccc(CCCn4ccnc4)cc3)co2)cc1 | 111 to 112 |
| CC(C)CCc1ccc(C=CC(O)=S)cc1 | 132 to 133 |

| Structure (SMILES) | melting point [°C] |
| --- | --- |
| O=C1CN=C(c2ccccc2Cl)c2cc(I)sc2N1 | 229 to 231 |
| COc1ccc(C(=O)C2(O)CCCCC2C(=O)NCC(C)C)cc1 (configuration not stated) | 143 to 147 |
| CC(C)c1nn(-c2ccc([N+](=O)[O-])cn2)cc1CCCO | 130 to 131 |
| CNC1=NS(=O)(=O)N=C1NCCSCc1csc(N)n1 | 200 to 201 |
| CCCCOC(=O)C=Cc1ccc(C=CC(=O)OCCCC)c2nsnc12 | 90 to 94 |
| Nc1cc(OC(F)(F)C(F)Cl)c(OC(F)(F)C(F)Cl)cc1N (configuration not stated) | 58 to 60 |
| Nc1ccc(C(=O)N(CCN2CCC(C(=O)c3ccc(F)cc3)CC2)c2ccccc2)cc1 | 156 to 157 |
| Cc1ccc2c(c1)CCC2=NNC(=N)N | > 275 |
| CCCCC1=NOC(Cc2ccccc2)C(=O)N1 (configuration not stated) | 82 to 85 |
| Cc1c(Cc2ccc([N+](=O)[O-])cc2)c(=O)oc2cc(OCC#N)cc(OCC#N)c12 | 178 to 185 |
| CCOC(C)O[C@H]1C(=O)N(C(=O)OC(C)(C)C)[C@H]1C=Cc1ccccc1 (some centres not stated) | 69 to 73 |
| CCN(C1CCN(Cc2ccccc2)C1)S(=O)(=O)c1ccc(Nc2nccc(Nc3ccc(F)cc3)n2)cc1 (configuration not stated) | 125 to 127 |
| CNC(=N[N+](=O)[O-])N(Cc1cnc(Cl)s1)C(=O)C(C)C | 101 to 104 |
| COC1C=CC2C3Cc4ccc(O)c5c4C2(CCN3C)C1O5 (configuration not stated) | 242 to 243 |
| CCCC1CCC=CCCCC(=O)OCCN1C(=O)OCC1c2ccccc2-c2ccccc21 (configuration not stated) | 148 to 150 |
| CC(C)NCCCC(O)c1ccccc1-c1ccccc1 (configuration not stated) | 78 to 80 |
| N#Cc1cc(Br)cc(CO)c1 | 108 to 109 |
| CNCCOc1cc(NC(=O)c2ccc(-c3ccc(-c4noc(C)n4)cc3C)cc2)ccc1OC | 97 to 99 |
| COc1cc(C=C2C(=O)CCc3cc(OC)c(OC)cc32)c([N+](=O)[O-])cc1OC | 65 to 66 |
| CCCCNC(=O)C1CC(C)(C)NC(C)(C)C1=NO (configuration not stated) | 58 to 60 |
| Cc1nc(C(=O)NN(C)C)c2n1-c1ccc(Cl)cc1C(c1ccccc1F)NC2 (configuration not stated) | 218 to 219 |
| Cc1ccc(-n2c(-c3ccc(Br)cc3)nc3c4ccccc4c4ccccc4c32)cc1 | 236 |
| COc1cc(C(=O)O)ccc1Cc1cn(C)c2ccc(NC(=O)OC3CCCC3)cc12 | 157 to 158 |
| CCC(C(=O)O)c1ccc(N[C@@H](CCC(N)=O)C(=O)O)cc1 (some centres not stated) | 166 to 167 |
| CCCCCCO[C@H](C)C(=O)Oc1ccc(C(=O)O)cc1 | 67 to 72 |
| CCC(CCc1cc(-c2ccccc2)nc2ccccc12)C(=O)N(CC)CC (configuration not stated) | 81 |
